The values below come from patent US12590070B2, “Adamantane derivatives as inhibitors of focal adhesion kinase” (SAMJIN PHARMACEUTICAL CO., LTD., priority 2019, dated 2026).

Assay [1] has as its target T1, FAK (Homo sapiens, UniProt Q05397). Put plainly: FAK [pY397] ELISA in MDA-MB-231 cells. In kind it is cell-based. More on the design: endogenous in cells; host or cells: MDA-MB-231. The note with it: MDA-MB-231, treated for one hour, Table 2; read-out: FAK inhibitory activity (IC50). As for the experimental part: Briefly, an enzyme-linked immunosorbent assay test was performed according to the manufacturer's instructions by using the FAK (Phospho) [pY397] Human ELISA Kit (Thermo Fisher Scientific, KH00441) after dispensing 1×10^6 MDA-MB-231 cells into each well of a 6-well plate, inducing cell stabilization for 24 hours, and treating each compound at different concentrations (o, 1, 5, 10, 50, 100, 500, 1000 nM) for one hour.
A general note: In an ELISA, binding on a coated surface is turned into a signal by an enzyme label.

Assay [2] addresses T1, FAK. Put plainly: ADP-Glo Kinase Assay, FAK. Format: biochemical. More on the design: purchased Promega V1971. The note with it: ADP-Glo Kinase Assay Kit. How it is done: (§1) Briefly, a kinase test was performed and quantified according to the manufacturer's instructions after treating the adamantane derivative compound of the present invention by using the ADP-Glo™ Kinase Assay Kit (FAK, Promega, V1971; Pyk2, Promega, V4083; InsR, Promega, V9401) containing each kinase of Promega.

The target of another assay is T2, InsR (Homo sapiens, UniProt P06213).
T2 construct: purchased Promega V9401
The assay is described as follows: ADP-Glo Kinase Assay, InsR. In kind it is biochemical. The note with it: ADP-Glo Kinase Assay Kit. As for the experimental part:
as §1
Background: In ADP-Glo the light output rises with the ADP produced.

The target in the next assay is T3, Pyk2 (Homo sapiens, UniProt Q14289).
T3 construct: purchased Promega V4083
The assay is described as follows: ADP-Glo Kinase Assay, Pyk2. The note with it: ADP-Glo Kinase Assay Kit. Format: biochemical. How it is done: as §1

Where only a bound is given, the exact number is not on record here.

T2 sequence (P06213 28-1382): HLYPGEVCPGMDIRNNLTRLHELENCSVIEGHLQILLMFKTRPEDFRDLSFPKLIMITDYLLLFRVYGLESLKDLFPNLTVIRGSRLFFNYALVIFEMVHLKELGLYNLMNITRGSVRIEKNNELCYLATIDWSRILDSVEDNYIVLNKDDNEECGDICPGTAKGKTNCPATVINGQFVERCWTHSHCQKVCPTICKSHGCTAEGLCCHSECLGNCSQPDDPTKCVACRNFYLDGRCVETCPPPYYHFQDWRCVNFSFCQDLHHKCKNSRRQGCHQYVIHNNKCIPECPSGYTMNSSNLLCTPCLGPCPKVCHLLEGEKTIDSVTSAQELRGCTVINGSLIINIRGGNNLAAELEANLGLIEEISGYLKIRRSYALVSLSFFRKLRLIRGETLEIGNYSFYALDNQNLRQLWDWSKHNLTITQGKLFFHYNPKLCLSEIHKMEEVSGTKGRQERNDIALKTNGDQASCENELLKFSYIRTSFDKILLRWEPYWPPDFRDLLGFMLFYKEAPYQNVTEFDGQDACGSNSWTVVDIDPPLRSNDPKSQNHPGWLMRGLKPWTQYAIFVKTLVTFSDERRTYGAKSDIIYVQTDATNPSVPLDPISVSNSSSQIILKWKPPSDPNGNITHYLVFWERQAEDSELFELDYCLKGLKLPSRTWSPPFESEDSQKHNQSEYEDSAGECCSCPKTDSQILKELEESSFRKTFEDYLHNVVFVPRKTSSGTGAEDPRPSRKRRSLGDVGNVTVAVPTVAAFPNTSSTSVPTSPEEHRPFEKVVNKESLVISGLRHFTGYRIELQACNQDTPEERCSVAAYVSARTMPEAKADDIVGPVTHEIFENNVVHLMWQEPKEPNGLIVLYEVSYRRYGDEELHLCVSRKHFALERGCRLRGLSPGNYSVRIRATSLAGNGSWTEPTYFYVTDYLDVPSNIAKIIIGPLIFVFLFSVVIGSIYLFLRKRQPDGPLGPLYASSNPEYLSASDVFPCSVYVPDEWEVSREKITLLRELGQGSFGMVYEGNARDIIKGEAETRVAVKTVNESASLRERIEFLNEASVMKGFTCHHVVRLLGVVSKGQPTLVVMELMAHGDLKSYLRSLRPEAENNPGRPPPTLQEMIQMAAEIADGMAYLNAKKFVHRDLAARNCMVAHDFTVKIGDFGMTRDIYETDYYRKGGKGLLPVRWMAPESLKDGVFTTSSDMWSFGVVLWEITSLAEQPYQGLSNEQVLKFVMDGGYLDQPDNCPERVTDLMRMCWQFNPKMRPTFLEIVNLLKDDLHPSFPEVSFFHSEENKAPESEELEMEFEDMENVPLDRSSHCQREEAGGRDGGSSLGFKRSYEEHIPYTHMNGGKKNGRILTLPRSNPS
T3 sequence (Q14289 whole entry): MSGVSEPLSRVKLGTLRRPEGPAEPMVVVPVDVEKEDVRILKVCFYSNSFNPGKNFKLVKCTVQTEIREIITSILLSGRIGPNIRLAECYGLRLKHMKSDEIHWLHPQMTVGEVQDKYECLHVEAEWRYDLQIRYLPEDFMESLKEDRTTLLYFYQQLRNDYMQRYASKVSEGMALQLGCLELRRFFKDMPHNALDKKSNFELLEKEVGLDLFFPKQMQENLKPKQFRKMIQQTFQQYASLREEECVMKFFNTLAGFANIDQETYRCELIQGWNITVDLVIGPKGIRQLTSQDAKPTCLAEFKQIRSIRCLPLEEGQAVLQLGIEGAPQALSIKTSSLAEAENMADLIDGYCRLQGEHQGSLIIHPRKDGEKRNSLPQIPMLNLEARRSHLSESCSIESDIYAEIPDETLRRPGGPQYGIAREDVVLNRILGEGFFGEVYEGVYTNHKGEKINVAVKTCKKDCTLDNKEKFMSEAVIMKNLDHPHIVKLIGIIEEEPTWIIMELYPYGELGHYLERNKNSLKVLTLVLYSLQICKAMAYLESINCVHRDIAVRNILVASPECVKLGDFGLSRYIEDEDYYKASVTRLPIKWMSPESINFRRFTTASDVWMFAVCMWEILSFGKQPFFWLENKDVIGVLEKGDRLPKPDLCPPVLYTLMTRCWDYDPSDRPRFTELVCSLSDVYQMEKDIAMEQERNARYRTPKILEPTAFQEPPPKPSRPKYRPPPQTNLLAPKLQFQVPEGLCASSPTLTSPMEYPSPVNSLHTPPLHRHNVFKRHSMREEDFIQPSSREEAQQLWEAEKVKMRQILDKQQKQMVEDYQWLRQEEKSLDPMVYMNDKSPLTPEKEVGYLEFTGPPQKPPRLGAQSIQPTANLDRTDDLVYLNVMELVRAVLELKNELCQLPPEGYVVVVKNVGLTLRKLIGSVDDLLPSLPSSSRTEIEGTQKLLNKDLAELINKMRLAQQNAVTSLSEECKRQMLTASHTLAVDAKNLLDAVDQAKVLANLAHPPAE
T1 sequence (Q05397 whole entry): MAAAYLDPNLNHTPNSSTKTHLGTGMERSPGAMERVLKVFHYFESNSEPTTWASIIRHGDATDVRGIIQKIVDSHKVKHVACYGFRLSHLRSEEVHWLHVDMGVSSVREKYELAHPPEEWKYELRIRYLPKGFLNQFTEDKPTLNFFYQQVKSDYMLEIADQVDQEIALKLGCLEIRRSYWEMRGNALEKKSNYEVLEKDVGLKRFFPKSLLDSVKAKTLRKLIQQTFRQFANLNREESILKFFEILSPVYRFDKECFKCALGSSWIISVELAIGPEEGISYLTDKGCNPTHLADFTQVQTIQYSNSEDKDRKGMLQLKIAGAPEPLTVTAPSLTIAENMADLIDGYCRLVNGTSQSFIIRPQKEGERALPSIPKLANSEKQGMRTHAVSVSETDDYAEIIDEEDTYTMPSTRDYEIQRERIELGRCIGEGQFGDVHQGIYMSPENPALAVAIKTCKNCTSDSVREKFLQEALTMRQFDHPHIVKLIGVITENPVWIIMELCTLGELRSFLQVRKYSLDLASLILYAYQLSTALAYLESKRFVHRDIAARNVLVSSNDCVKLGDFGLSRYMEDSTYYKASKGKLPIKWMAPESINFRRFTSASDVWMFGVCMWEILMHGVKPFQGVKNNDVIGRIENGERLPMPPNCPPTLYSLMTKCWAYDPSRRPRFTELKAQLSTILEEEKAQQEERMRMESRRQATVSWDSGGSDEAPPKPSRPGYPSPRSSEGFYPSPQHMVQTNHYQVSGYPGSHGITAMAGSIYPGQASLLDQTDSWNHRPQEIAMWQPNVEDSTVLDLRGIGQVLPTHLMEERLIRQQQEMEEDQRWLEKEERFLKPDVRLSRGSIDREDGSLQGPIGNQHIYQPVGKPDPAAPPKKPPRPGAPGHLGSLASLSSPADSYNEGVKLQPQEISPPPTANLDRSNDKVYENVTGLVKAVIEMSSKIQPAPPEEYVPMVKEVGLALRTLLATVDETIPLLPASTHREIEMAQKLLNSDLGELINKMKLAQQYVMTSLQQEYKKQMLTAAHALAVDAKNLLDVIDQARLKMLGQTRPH

For `CNC(=O)c1cccc(C)c1Nc1nc(Nc2ccc(NC3C4CC5CC(C4)CC3C5)cc2OC)ncc1C(F)(F)F` (stereo not shown) [Compound 2, 2-((2-((4-(adamantan-2-ylamino)-2-methoxyphenyl)amino)-5-(trifluoromethyl)pyrimidin-4-yl)amino)-N,3-dimethylbenzamide], the figures for the IC50 on FAK [1], on FAK [2] and against InsR were 111 nM, 206 nM and above 10000 nM, respectively. On the same counts, the results for `CNC(=O)c1cccc(C)c1Nc1nc(Nc2ccc(N3CCN([C@H]4C5CC6CC4C[C@@](O)(C6)C5)CC3)cc2OC)ncc1C(F)(F)F` [Compound 5, 2-((2-((4-(4-((cis)-5-hydroxyadamantan-2-yl)piperazin-1-yl)-2-methoxyphenyl)amino)-5-(trifluoromethyl)pyrimidin-4-yl)amino)-N,3-dimethylbenzamide] are 32 nM, 69.9 nM and 4680 nM. As for `CNC(=O)c1cccc(C)c1Nc1nc(Nc2ccc(OC3CCN(C4C5CC6CC(C5)CC4C6)CC3)cc2OC)ncc1C(F)(F)F` (stereo not shown) [Compound 9, 2-((2-((4-((1-(adamantan-2-yl)piperidin-4-yl)oxy)-2-methoxyphenyl)amino)-5-(trifluoromethyl)pyrimidin-4-yl)amino)-N,3-dimethylbenzamide], the IC50 (commonly the midpoint of a concentration-inhibition curve) was 98.1 nM on FAK [2] and above 10000 nM at InsR.

For the molecule `CNC(=O)c1cccc(C)c1Nc1nc(Nc2ccc(O[C@]34CC5CC(C3)[C@@H](N3CC[C@H](NC(C)=O)C3)C(C5)C4)cc2OC)ncc1C(F)(F)F` [Compound 14, 2-((2-((4-(((trans)-4-((S)-3-acetamidopyrrolidin-1-yl)adamantan-1-yl)oxy)-2-methoxyphenyl)amino)-5-(trifluoromethyl)pyrimidin-4-yl)amino)-N,3-dimethylbenzamide], on FAK [2], half-maximal inhibition (IC50) required 57 nM. In turn, `CNC(=O)c1cccc(C)c1Nc1nc(Nc2ccc(OC3C4CC5CC3CC(C(=O)NC)(C5)C4)cc2OC)ncc1C(F)(F)F` (stereo not shown) [Compound 18, 4-(3-methoxy-4-((4-((2-methyl-6-(methylcarbamoyl)phenyl)amino)-5-(trifluoromethyl)pyrimidin-2-yl)amino)phenoxy)-N-methyladamantan-1-carboxamide] had an IC50 at FAK [2] of 92.9 nM. On the same count and under the same terms, to `CNC(=O)c1cccc(C)c1Nc1nc(Nc2ccc(OC3C4CC5CC3CC(C(=O)N3CCOCC3)(C5)C4)cc2OC)ncc1C(F)(F)F` (stereo not shown) [Compound 19, 2-((2-((2-methoxy-4-((5-(morpholin-4-carbonyl)adamantan-2-yl)oxy)phenyl)amino)-5-(trifluoromethyl)pyrimidin-4-yl)amino)-N,3-dimethylbenzamide] belongs 127 nM. Regarding `CNC(=O)c1cccc(C)c1Nc1nc(Nc2ccc(OC3C4CC5CC3CC(C(=O)N3CCN(C)CC3)(C5)C4)cc2OC)ncc1C(F)(F)F` (stereo not shown) [Compound 20, 2-((2-((2-methoxy-4-((5-(4-methylpiperazin-1-carbonyl)adamantan-2-yl)oxy)phenyl)amino)-5-(trifluoromethyl)pyrimidin-4-yl)amino)-N,3-dimethylbenzamide], the IC50 at FAK [1] came to 153 nM; against FAK [2] it was 98.9 nM. With `CNC(=O)c1cccc(C)c1Nc1nc(Nc2ccc(NC3C4CC5CC3CC(C(=O)N3CCOCC3)(C5)C4)cc2OC)ncc1C(F)(F)F` (stereo not shown) [Compound 22, 2-((2-((2-methoxy-4-((5-(morpholin-4-carbonyl)adamantan-2-yl)amino)phenyl)amino)-5-(trifluoromethyl)pyrimidin-4-yl)amino)-N,3-dimethylbenzamide], the IC50 against FAK [2] came out at 57 nM. As for `CNC(=O)c1cccc(C)c1Nc1nc(Nc2ccc(NC3C4CC5CC3CC(C(=O)N3CCN(C)CC3)(C5)C4)cc2OC)ncc1C(F)(F)F` (stereo not shown) [Compound 23, 2-((2-((2-methoxy-4-((5-(4-methylpiperazin-1-carbonyl)adamantan-2-yl)amino)phenyl)amino)-5-(trifluoromethyl)pyrimidin-4-yl)amino)-N,3-dimethylbenzamide], the results for the half-inhibitory concentration (IC50) on FAK [1] and against FAK [2] were 234 nM and 77.5 nM, respectively. With `CNC(=O)c1cccc(C)c1Nc1nc(Nc2ccc(NC(=O)[C@]34CC5CC(C3)[C@H](N3CC[C@H](NC(C)=O)C3)C(C5)C4)cc2OC)ncc1C(F)(F)F` [Compound 28, (cis)-4-((S)-3-acetamidopyrrolidin-1-yl)-N-(3-methoxy-4-((4-((2-methyl-6-(methylcarbamoyl)phenyl)amino)-5-(trifluoromethyl)pyrimidin-2-yl)amino)phenyl) adamantan-1-carboxamide], the IC50 was 29 nM at FAK [2], 64.5 nM on Pyk2 and above 10000 nM at InsR.

Take `CNC(=O)c1cccc(C)c1Nc1nc(Nc2ccc(NC(=O)[C@]34CC5CC(C3)[C@@H](N3CC[C@H](N)C3)C(C5)C4)cc2OC)ncc1C(F)(F)F` [Compound 30, (trans)-4-((S)-3-aminopyrrolidin-1-yl)-N-(3-methoxy-4-((4-((2-methyl-6-(methylcarbamoyl)phenyl)amino)-5-(trifluoromethyl)pyrimidin-2-yl)amino)phenyl) adamantan-1-carboxamide]: the 50% inhibitory concentration (IC50) against Pyk2 worked out at 18.2 nM; at InsR, 3800 nM. On the same counts, the results for `CNC(=O)c1cccc(C)c1Nc1nc(Nc2ccc(C3CCN([C@H]4C5CC6CC4C[C@](O)(C6)C5)CC3)cc2OC)ncc1C(F)(F)F` [Compound 32, 2-((2-((4-(1-((trans)-5-hydroxyadamantan-2-yl)piperidin-4-yl)-2-methoxyphenyl)amino)-5-(trifluoromethyl)pyrimidin-4-yl)amino)-N,3-dimethylbenzamide] are 154 nM and 2150 nM. As to `CNC(=O)c1cccc(C)c1Nc1nc(Nc2ccc(C3CCN([C@H]4C5CC6CC4C[C@@](O)(C6)C5)CC3)cc2OC)ncc1C(F)(F)F` [Compound 33, 2-((2-((4-(1-((cis)-5-hydroxyadamantan-2-yl)piperidin-4-yl)-2-methoxyphenyl)amino)-5-(trifluoromethyl)pyrimidin-4-yl)amino)-N,3-dimethylbenzamide], the IC50 on Pyk2 turned out to be 101 nM; on InsR it was 2050 nM. On the same counts, the results for `COc1cc(C2CCN([C@H]3C4CC5CC3C[C@](O)(C5)C4)CC2)ccc1Nc1ncc(C(F)(F)F)c(Nc2c(C)cccc2C(N)=O)n1` [Compound 34, 2-((2-((4-(1-((trans)-5-hydroxyadamantan-2-yl)piperidin-4-yl)-2-methoxyphenyl)amino)-5-(trifluoromethyl)pyrimidin-4-yl)amino)-3-methylbenzamide] are 427 nM and 1640 nM. Consider `COc1cc(C2CCN([C@H]3C4CC5CC3C[C@](O)(C5)C4)CC2)ccc1Nc1ncc(C(F)(F)F)c(Nc2c(C)cccc2C(N)=O)n1` [Compound 35, 2-((2-((4-(1-((cis)-5-hydroxyadamantan-2-yl)piperidin-4-yl)-2-methoxyphenyl)amino)-5-(trifluoromethyl)pyrimidin-4-yl)amino)-3-methylbenzamide], for which the IC50 on Pyk2 was 418 nM; against InsR, 1440 nM. `CNC(=O)c1cccc(C)c1Nc1nc(Nc2ccc(N3CCN([C@H]4C5CC6CC4C[C@@](O)(C6)C5)CC3)cc2OC)ncc1Cl` [Compound 36, 2-((5-chloro-2-((4-(4-((trans)-5-hydroxyadamantan-2-yl)piperazin-1-yl)-2-methoxyphenyl)amino)-pyrimidin-4-yl)amino)-N,3-dimethylbenzamide] yielded an IC50 against FAK [2] of 61.4 nM.

As to `CNC(=O)c1cccc(C)c1Nc1nc(Nc2ccc(N3CCN([C@H]4C5CC6CC4C[C@](C(=O)OC)(C6)C5)CC3)cc2OC)ncc1C(F)(F)F` [Compound 37, methyl (trans)-4-(4-(3-methoxy-4-((4-((2-methyl-6-(methylcarbamoyl)phenyl)amino)-5-(trifluoromethyl)pyrimidin-2-yl)amino)phenyl)piperazin-1-yl) adamantan-1-carboxylate], the IC50 against FAK [2] was determined as 43.6 nM.

For `CNC(=O)c1cccc(C)c1Nc1nc(Nc2ccc(N3CCN([C@H]4C5CC6CC4C[C@@](C(=O)OC)(C6)C5)CC3)cc2OC)ncc1C(F)(F)F` [Compound 38, methyl (cis)-4-(4-(3-methoxy-4-((4-((2-methyl-6-(methylcarbamoyl)phenyl)amino)-5-(trifluoromethyl)pyrimidin-2-yl)amino)phenyl)piperazin-1-yl) adamantan-1-carboxylate], the IC50 on FAK [2] amounted to 70 nM. On to `CNC(=O)c1cccc(C)c1Nc1nc(Nc2ccc(N3CCN([C@H]4C5CC6CC4C[C@](C(=O)O)(C6)C5)CC3)cc2OC)ncc1C(F)(F)F` [Compound 39, (trans)-4-(4-(3-methoxy-4-((4-((2-methyl-6-(methylcarbamoyl)phenyl)amino)-5-(trifluoromethyl)pyrimidin-2-yl)amino)phenyl)piperazin-1-yl) adamantan-1-carboxylic acid], for which the IC50 at FAK [2] is 58 nM. For `CNC(=O)c1cccc(C)c1Nc1nc(Nc2ccc(N3CCN([C@H]4C5CC6CC4C[C@](C(=O)O)(C6)C5)CC3)cc2OC)ncc1C(F)(F)F` [Compound 40, (cis)-4-(4-(3-methoxy-4-((4-((2-methyl-6-(methylcarbamoyl)phenyl)amino)-5-(trifluoromethyl)pyrimidin-2-yl)amino)phenyl)piperazin-1-yl) adamantan-1-carboxylic acid], on FAK [2], the IC50 was found to be 58.3 nM.
